Measurements published in US12285012B2, “Compositions comprising pyridine carboxylate herbicides with acetolactate synthase (ALS) inhibitor herbicides” (Corteva Agriscience LLC, priority 2018, dated 2025).

Tests used:
[1] = system: kochia (KCHSC, Kochia scoparia); assay: Greenhouse postemergence herbicidal effect; format: in vivo
In short: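 Plants at the second or third true leaf stage received overhead spray at 187 L/ha, with the pyridine carboxylate (plus cloquintocet-mexyl safener) alone or with ALS herbicides in 1.25% v/v crop oil. Rates are in g ae/ha or g ai/ha. Visual injury versus solvent-blank controls was scored 0–100% after 20-22 d in the greenhouse.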

[2] = system: common lambsquarters (CHEAL, Chenopodium album L.); assay: Greenhouse postemergence herbicidal effect; format: in vivo; conditions: Florasulam 3.75 g/ha
[3] = system: Canadian thistle (CIRAR, Cirsium arvense); assay: Greenhouse postemergence herbicidal effect; format: in vivo
In short: (§1)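 Injury was rated visually after 20-22 d on a 0 (none) to 100% (complete kill) scale relative to solvent-sprayed controls, with sub-irrigation to avoid wash-off. Rates were given in g ae/ha or g ai/ha depending on component.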

[4] = system: pineapple weed (MATMT, Matricaria discoidea); assay: Greenhouse postemergence herbicidal effect; format: in vivo; conditions: Florasulam 5 g/ha
In short: as §1

[5] = system: pigweed (AMARE, Amaranthus retroflexus); assay: Greenhouse postemergence herbicidal effect; format: in vivo; conditions: Florasulam 3.75 g/ha
In short: as §1

[6] = system: chickweed (STEME, Stellaria media); assay: Greenhouse postemergence herbicidal effect; format: in vivo; conditions: Florasulam 5 g/ha
In short: as §1

[7] = system: wild pansy (VIOTR, Viola tricolor); assay: Greenhouse postemergence herbicidal effect; format: in vivo; conditions: Florasulam 5 g/ha
In short: as §1

[8] = system: winter rape (BRSNW, Brassica napus); assay: Greenhouse postemergence herbicidal effect; format: in vivo
In short: as §1

[9] = system: wild chamomile (MATCH, Matricaria chamomilla); assay: Greenhouse postemergence herbicidal effect; format: in vivo
In short: as §1

[10] = system: Russian thistle (SASKR, Salsola kali); assay: Greenhouse postemergence herbicidal effect; format: in vivo; conditions: Florasulam 5 g/ha
In short: as §1

[11] = system: spring wheat (TRZAS); format: in vivo, Triticum aestivum
In short: as §1

COc1ncc(F)c2nc(S(=O)(=O)Nc3c(F)cccc3F)nn12 [Florasulam, florasulam]
% visual injury Obs ([1]; Florasulam 3.75 g/ha): 70%
% visual injury ([1]; Florasulam 5 g/ha): 95%
% visual injury Obs [2]: 0%
% visual injury Obs ([3]; Florasulam 3.75 g/ha): 68%
% visual injury ([3]; Florasulam 5 g/ha): 75%
% visual injury [4]: 95%
Obs % visual injury ([4]; MATMT): 65%
% visual injury Obs [5]: 100%
% visual injury [6]: 100%
% visual injury [7]: 10%
Obs % visual injury ([8]; BRSNW, Florasulam 5 g/ha): 35%
% visual injury Obs ([8]; Florasulam 3.75 g/ha): 95%
% visual injury ([8]; Florasulam 5 g/ha): 97%
% visual injury Obs ([9]; Florasulam 3.75 g/ha): 85%
% visual injury ([9]; Florasulam 5 g/ha): 85%
Obs % visual injury ([9]; MATCH, Florasulam 5 g/ha): 20%
% visual injury [10]: 85%
% visual injury Obs ([11]; Florasulam 3.75 g/ha): 0%
% visual injury ([11]; Florasulam 5 g/ha): 0%
